Measured values taken from EP4786487A1, “PEPTIDE” (Peptidream Inc, priority 2023, dated 2025).
Read-outs that look alike come from different tables or passages of the source. Starred links: 1 amine or outer side, 2 acyl side, 3 side chain; linkers in the order of their positions; H or OH if unused. Positions of bridges follow the written chain, without caps; N, C: chain ends. Non-standard residues stand in square brackets, D forms with d. Residues, ends and D or L forms follow the SMILES beside them. *: point of attachment. Phe(4-(4-pyridyl)) = N[C@@H](Cc1ccc(-c2ccncc2)cc1)C(=O)O; Phe(3-OCH2COOH) = N[C@@H](Cc1cccc(OCC(=O)O)c1)C(=O)O; Phe(4-COOH) = N[C@@H](Cc1ccc(C(=O)O)cc1)C(=O)O; Trp(6-aza) = N[C@@H](Cc1c[nH]c2cnccc12)C(=O)O; Piperidinyl(4-CH2COOH) = O=C(O)CC1CCN(*)CC1; Gly(decyl) = CCCCCCCCCC[C@H](N)C(=O)O; Gly(N(CH2)3COOH) = O=C(O)CCCNCC(=O)O; X1 = CCCCCCC[C@H](N[*:1])C(=O)[*:2]; NMeF = CN[C@@H](Cc1ccccc1)C(=O)O; 4Pal = N[C@@H](Cc1ccncc1)C(=O)O; NMeE = CN[C@@H](CCC(=O)O)C(=O)O; hSer = N[C@@H](CCO)C(=O)O; Carboxymethyl = O=C(O)C*; NMeA = CN[C@@H](C)C(=O)O; NEtG = CCNCC(=O)O; Sar = CNCC(=O)O; Propyl = CCC*

What was measured:
Assay type in all cases: cell-based
[1] = molecular target: T1, Myostatin (Homo sapiens, UniProt O14793); experiment: Reporter gene assay for myostatin signaling in HepG2 cell line, Evaluation Procedure (1), myostatin inhibition; settings: read-out: IC50 (Luciferase) Myostatin HepG2
T1 construct: active myostatin (also called mature myostatin) is a homodimer consisting of two C-terminal growth factor domains; purchased R&D systems 788-G8/CF
T1 sequence (O14793 267-375): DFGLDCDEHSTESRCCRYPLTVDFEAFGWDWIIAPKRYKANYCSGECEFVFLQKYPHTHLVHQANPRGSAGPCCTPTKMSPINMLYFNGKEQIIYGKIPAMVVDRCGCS
How it was run: (§1)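 IC50 derived from One-Glo luciferase luminescence after 20–24 h at 37 °C. Peptides titrated 4-fold at 0.006–100 nmol/L against myostatin or 0.12–2000 nmol/L against GDF-11 in HepG2 cells carrying a transfected CAGA12-luciferase reporter, kept in 0.1% BSA EMEM.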

[2] = system: Myostatin; experiment: as above; settings: GDF-11 IC50 versus Myostatin IC50
How it was run: as §1

[3] = molecular target: T2, GDF-11 (Homo sapiens, UniProt O95390); experiment: Reporter gene assay for myostatin signaling in HepG2 cell line, Evaluation Procedure (1), GDF-11 inhibition; settings: read-out: IC50 (Luciferase) GDF-11 HepG2
T2 construct: purchased R&D systems 1958-GD-G8/CF
T2 sequence (O95390 299-407): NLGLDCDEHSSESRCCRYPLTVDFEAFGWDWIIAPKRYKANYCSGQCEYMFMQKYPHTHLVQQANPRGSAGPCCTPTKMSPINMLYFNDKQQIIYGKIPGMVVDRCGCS
How it was run: as §1

Question: For `CCCCCCCCCC[C@@H]1NC(=O)[C@H](Cc2ccccc2)N(C)C(=O)[C@H](CCCNC(=N)N)NC(=O)[C@H](Cc2ccc(C(=O)O)cc2)NC(=O)[C@H](Cc2cccc(OCC(=O)O)c2)NC(=O)CN(CC)C(=O)[C@H]([C@@H](C)CC)NC(=O)[C@H](Cc2ccccc2)N(C)C(=O)[C@H](Cc2ccc(O)cc2)NC(=O)[C@H](Cc2c[nH]c3cnccc23)NC(=O)[C@H](C)NC(=O)[C@H](C)NC(=O)CSC[C@H](C(=O)N2CCC(CC(=O)O)CC2)NC(=O)[C@H](Cc2ccccc2)N(C)C(=O)[C@H](CCC(=O)O)N(C)C1=O` [Myostatin_99_v339] ({CH2CO}-AA[Trp(6-aza)]Y[NMeF]I[NEtG][Phe(3-OCH2COOH)][Phe(4-COOH)]R[NMeF][Gly(decyl)][NMeE][NMeF][dC]-{Piperidinyl(4-CH2COOH)}; thioether N-15), which IC50 ([1]; Method B: Myostatin 1 ng/mL) is on record?
Answer: The IC50 was 0.89 nM.

Question: And the Selectivity ([2]; Method B)?
Answer: Its Selectivity is 144.7.

Question: And the IC50 ([3]; Method B: GDF-11 1 ng/mL)?
Answer: Its IC50 is 128 nM.

Question: What does the source list for `CC[C@H](C)[C@@H]1NC(=O)[C@H](Cc2ccccc2)N(C)C(=O)[C@H](Cc2ccc(O)cc2)NC(=O)[C@H](Cc2ccc(-c3ccncc3)cc2)NC(=O)[C@H](C)NC(=O)CN(CCCC(=O)O)C(=O)CSC[C@H](C(=O)O)NC(=O)[C@H](Cc2ccccc2)N(C)C(=O)[C@H](C)N(C)C(=O)[C@H](CC(C)C)NC(=O)[C@H](Cc2ccccc2)N(C)C(=O)[C@H](CCCNC(=N)N)NC(=O)[C@H](Cc2ccc(OCC(=O)O)cc2)NC(=O)[C@H](Cc2cccc(OCC(=O)O)c2)NC(=O)CN(C)C1=O` [Myostatin_99_v84] ({CH2CO}-[Gly(N(CH2)3COOH)]A[Phe(4-(4-pyridyl))]Y[NMeF]I[Sar][Phe(3-OCH2COOH)]Y(Carboxymethyl)R[NMeF]L[NMeA][NMeF][dC]-OH; thioether N-15)?
Answer: IC50 ([1]; Method A: Myostatin 10 ng/mL): 27.3 nM; Selectivity ([2]; Method A): 112; IC50 ([3]; Method A: GDF-11 10 ng/mL): 3050 nM

Question: Which results are given for `CCCCCCC[C@@H]1NC(=O)[C@H](Cc2ccccc2)N(C)C(=O)[C@H](CCCNC(=N)N)NC(=O)[C@H](Cc2ccc(C(=O)O)cc2)NC(=O)[C@H](Cc2ccc(O)cc2)NC(=O)CN(C)C(=O)[C@H]([C@@H](C)CC)NC(=O)[C@H](Cc2ccccc2)N(C)C(=O)[C@H](Cc2ccc(O)cc2)NC(=O)[C@H](Cc2c[nH]c3ccccc23)NC(=O)[C@H](CO)NC(=O)CN(CCCC(=O)O)C(=O)CSC[C@H](C(=O)O)NC(=O)[C@H](Cc2ccccc2)N(C)C(=O)[C@H](C)N(C)C1=O` [Myostatin_99_v173] ({CH2CO}-[Gly(N(CH2)3COOH)]SWY[NMeF]I[Sar]Y[Phe(4-COOH)]R[NMeF][X1][NMeA][NMeF][dC]-OH; thioether N-15)?
Answer: IC50 ([1]; Method A: Myostatin 10 ng/mL): 5.5 nM; Selectivity ([2]; Method A): 42; IC50 ([3]; Method A: GDF-11 10 ng/mL): 232 nM

Question: Which results are given for `CCCOCC[C@@H]1NC(=O)[C@H](Cc2ccccc2)N(C)C(=O)[C@H](CCCNC(=N)N)NC(=O)[C@H](Cc2ccc(C(=O)O)cc2)NC(=O)[C@H](Cc2ccncc2)NC(=O)CN(C)C(=O)[C@H]([C@@H](C)CC)NC(=O)[C@H](Cc2ccccc2)N(C)C(=O)[C@H](Cc2ccc(O)cc2)NC(=O)[C@H](Cc2c[nH]c3ccccc23)NC(=O)[C@H](C)NC(=O)CN(CCCC(=O)O)C(=O)CSC[C@H](C(=O)O)NC(=O)[C@H](Cc2ccccc2)N(C)C(=O)[C@H](C)N(C)C1=O` [Myostatin_99_v230] ({CH2CO}-[Gly(N(CH2)3COOH)]AWY[NMeF]I[Sar][4Pal][Phe(4-COOH)]R[NMeF][hSer](Propyl)[NMeA][NMeF][dC]-OH; thioether N-15)?
Answer: IC50 ([1]; Method A: Myostatin 10 ng/mL): 57.1 nM; Selectivity ([2]; Method A): 147; IC50 ([3]; Method A: GDF-11 10 ng/mL): 8370 nM
